Data published in ChEMBL document CHEMBL1201862, “PubChem BioAssay data set” (2004).
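Following 48 hours of exposure in 96-well plates, responses at five concentrations were used to interpolate endpoints linearly. At the GI50, growth is halved.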 Calls of active or inactive are those of the source. No stated cut-off is given here; in the data, active = GI50 up to about 1.1 µM and inactive = higher.

How the values were obtained:
Assay in all cases: NCI tumour cell line growth inhibition, 48 h
SK-MEL-28 = tested on: SK-MEL-28
DU-145 = tested on: DU-145
OVCAR-8 = tested on: OVCAR-8
KM12 = tested on: KM12
UO-31 = tested on: UO-31
U-251 = tested on: U-251
T47D = tested on: T47D
SW-620 = tested on: SW-620
TK-10 = tested on: TK-10
SK-MEL-2 = tested on: SK-MEL-2
OVCAR-3 = tested on: OVCAR-3
NCI-H460 = tested on: NCI-H460
SN12C = tested on: SN12C
HCT-15 = tested on: HCT-15
SNB-75 = tested on: SNB-75
M14 = tested on: M14
SF-539 = tested on: SF-539
OVCAR-4 = tested on: OVCAR-4
NCI/ADR-RES = tested on: NCI/ADR-RES
HL-60 = tested on: HL-60

SMILES	GI50 (SK-MEL-28)	GI50 (DU-145)	GI50 (OVCAR-8)	GI50 (KM12)	GI50 (UO-31)	GI50 (U-251)	GI50 (T47D)	GI50 (SW-620)	GI50 (TK-10)	GI50 (SK-MEL-2)	GI50 (OVCAR-3)	GI50 (NCI-H460)	GI50 (SN12C)	GI50 (HCT-15) [µM]	GI50 (SNB-75)	GI50 (M14)	GI50 (SF-539)	GI50 (OVCAR-4)	GI50 (NCI/ADR-RES)	GI50 (HL-60)
C=CC1(C)CCC2C(=CCC3C(C)(COC4OC(C(=O)O)C(O)C(O)C4O)C(O)CCC23C)C1.C=CC1(C)CCC2C(=CCC3C2(C)CC(O)C(O)C3(C)COC2OC(C(=O)O)C(O)C(O)C2O)C1 (stereo unspecified)	> 100 µM (inactive)	> 100 µM (inactive)	> 100 µM (inactive)	> 100 µM (inactive)	> 100 µM (inactive)	> 100 µM (inactive)	> 100 µM (inactive)	> 100 µM (inactive)	46.1 µM (inactive)	> 100 µM (inactive)	> 100 µM (inactive)	> 100 µM (inactive)	> 100 µM (inactive)	> 100	> 100 µM (inactive)	> 100 µM (inactive)	> 100 µM (inactive)	> 100 µM (inactive)	–	–
COc1ccc(-c2cc(-c3ccco3)c(C#N)c(=S)n2C2OC(CO)C(O)C(O)C2O)cc1 (stereo unspecified)	> 100 µM (inactive)	> 10 µM (inactive)	> 100 µM (inactive)	> 100 µM (inactive)	> 100 µM (inactive)	82.8 µM (inactive)	–	> 100 µM (inactive)	> 100 µM (inactive)	> 100 µM (inactive)	49.7 µM (inactive)	> 100 µM (inactive)	> 100 µM (inactive)	> 100	> 100 µM (inactive)	52 µM (inactive)	> 100 µM (inactive)	> 100 µM (inactive)	> 100 µM (inactive)	–
CCOc1ccccc1NC(=O)C(C#N)C1=C(Cl)C(=O)c2ccccc2C1=O (stereo unspecified)	2.03 µM (inactive)	–	0.792 µM (active)	1.72 µM (inactive)	1.73 µM (inactive)	1.71 µM (inactive)	–	1.78 µM (inactive)	2.22 µM (inactive)	1.55 µM (inactive)	1.6 µM (inactive)	1.79 µM (inactive)	1.79 µM (inactive)	1.47	2.33 µM (inactive)	1.68 µM (inactive)	2.12 µM (inactive)	1.94 µM (inactive)	–	0.486 µM (active)
NC(=O)CCC(NC(=O)c1cccc2c(=O)c3ccccc3[nH]c12)C(=O)O (stereo unspecified)	> 100 µM (inactive)	> 100 µM (inactive)	> 100 µM (inactive)	> 100 µM (inactive)	> 100 µM (inactive)	> 100 µM (inactive)	–	> 100 µM (inactive)	> 100 µM (inactive)	> 100 µM (inactive)	> 100 µM (inactive)	–	> 100 µM (inactive)	> 100	> 100 µM (inactive)	> 100 µM (inactive)	–	> 100 µM (inactive)	> 100 µM (inactive)	> 100 µM (inactive)
O=C(CNc1ccccc1C(=O)O)Nn1cnc2ccc(S(=O)(=O)Nc3ccccc3C(=O)O)cc2c1=O	> 100 µM (inactive)	> 100 µM (inactive)	> 100 µM (inactive)	> 100 µM (inactive)	> 100 µM (inactive)	> 100 µM (inactive)	–	> 100 µM (inactive)	> 100 µM (inactive)	> 100 µM (inactive)	> 100 µM (inactive)	> 100 µM (inactive)	> 100 µM (inactive)	> 100	> 100 µM (inactive)	> 100 µM (inactive)	> 100 µM (inactive)	> 100 µM (inactive)	> 100 µM (inactive)	> 100 µM (inactive)
CC(C)(C)[Si](C)(C)OCC1OC(n2ccc(=O)[nH]c2=O)C(O[Si](C)(C)C(C)(C)C)[C@@]12O[C@H]2C(N)=O (stereo partly specified)	17.6 µM (inactive)	4.03 µM (inactive)	5.11 µM (inactive)	7.67 µM (inactive)	7.36 µM (inactive)	4.28 µM (inactive)	–	6.01 µM (inactive)	20.2 µM (inactive)	16.3 µM (inactive)	11.5 µM (inactive)	5.28 µM (inactive)	13 µM (inactive)	5.38	10.1 µM (inactive)	11.3 µM (inactive)	3.05 µM (inactive)	18.5 µM (inactive)	8.57 µM (inactive)	96.6 µM (inactive)
CCNC(=O)C(O)C1(O)CCC2[C@@H]3CCC4=CC(=O)C=C[C@]4(C)C3[C@@H](O)C[C@@]21C (stereo partly specified)	> 100 µM (inactive)	–	> 100 µM (inactive)	> 100 µM (inactive)	> 100 µM (inactive)	> 100 µM (inactive)	–	> 100 µM (inactive)	> 100 µM (inactive)	> 100 µM (inactive)	> 100 µM (inactive)	> 100 µM (inactive)	53.2 µM (inactive)	> 100	> 100 µM (inactive)	> 100 µM (inactive)	> 100 µM (inactive)	> 100 µM (inactive)	–	29.8 µM (inactive)
O=C1CCCCC/C1=C\c1ccc(Cl)cc1	49.3 µM (inactive)	39.2 µM (inactive)	–	17.7 µM (inactive)	27.2 µM (inactive)	30 µM (inactive)	37.3 µM (inactive)	24.7 µM (inactive)	28.1 µM (inactive)	34.8 µM (inactive)	47.8 µM (inactive)	35.2 µM (inactive)	35.3 µM (inactive)	28.1	17 µM (inactive)	34.4 µM (inactive)	–	26.7 µM (inactive)	–	–
